The numbers were not newly measured in US20030224072A1, “Topical and oral administration of a composition containing Pelargonium Graveolens for diagnosis and treatment of various neuralgias and other conditions” (priority 2002, published 2003), which cites them from elsewhere.

Structures are written as SMILES.

In the series the test system is neuropathic pain. The following applies: topical.

On to `COc1cc(CNC(=O)CCCC/C=C/C(C)C)ccc1O` [Capsaicin], for which the “duration of burning sensation on skin” value was “approximately one week” and the “share of neuropathic pain patients with pain relief” value was “only a small percentage”.
